Experimental data taken from patent publication US20130230459A1, “RADIOLABELLED mGluR2 PET LIGANDS” (Janssen Pharmaceuticals, Inc., priority 2010, published 2013).

Tests used:
[1] = Perfused brain radiometabolite analysis (30 min p.i.); assay type: in vivo, Wistar rats
Procedure: The relative amounts of parent tracer and radiometabolites in perfused cerebellum and cerebrum at 30 min p.i. of the tracer was determined in healthy male Wistar rats for [^11C]B-4, [^11C]B-2, [^11C]B-7, and [^11C]B-10. After i.v. administration of about 74 MBq of the radioligand via tail vein under anesthesia (2.5% Isoflurane in O2 at 1 L/min flow rate), rats were sacrificed by administering an overdose of Nembutal (CEVA Santé Animale, 200 mg/kg intraperitoneal). When breathing had stopped, the rats were perfused with saline (Mini Plasco®, Braun, Melsungen, Germany) until the liver turned pale. Brain was isolated, cerebrum and cerebellum were separated and homogenized in 3 mL and 2 mL of CH3CN, respectively, for about 2 min. A volume of 1 mL of this homogenate was diluted with an equal volume of water and a part of this homogenate was filtered through a 0.22 μm filter (Millipore, Bedford, USA). About 0.5 mL of the filtrate was diluted with 0.1 mL of water and spiked with 10 μg of authentic non-radioactive compound (1 mg/mL solution) for identification of the intact tracer. The cerebrum/cerebellum extract was then injected onto an HPLC system consisting of an analytical XBridge® column (C18, 5 μM, 3 mm×100 mm, Waters) eluted with a mixture of 0.05 M NaOAc buffer (pH 5.5) and CH3CN (60:40 v/v) at a flow rate of 0.8 mL/min. The HPLC eluate was collected as 1 mL fractions (fraction collection each minute) after passing through the UV detector (254 nm), and the radioactivity in the fractions was measured using an automated gamma counter.

mGluR2 = target: T1, mGluR2 (Rattus norvegicus, UniProt P31421); assay: MicroPET imaging: baseline, blocking and chase experiments; assay type: in vivo, Wistar rats; settings: for % reduction of SUV (total brain) due to chase: chase compound B 4 mg/kg i.v.; for SUV (total brain) before chase: maximum SUV; for SUV (total brain) before chase / SUV (total brain) after chase: chase compound B 4 mg/kg i.v. 30 min after tracer; for SUV (total brain) after chase: minimum SUV; for character of tracer binding to mGluR2 in vivo: concluded from blocking/chase microPET experiments; for average SUV (total brain) after chase: 4650-5250 sec p.i.
T1 construct: from tissue; host or cells: brain of living male Wistar rats (in vivo microPET)
T1 sequence (P31421 19-872): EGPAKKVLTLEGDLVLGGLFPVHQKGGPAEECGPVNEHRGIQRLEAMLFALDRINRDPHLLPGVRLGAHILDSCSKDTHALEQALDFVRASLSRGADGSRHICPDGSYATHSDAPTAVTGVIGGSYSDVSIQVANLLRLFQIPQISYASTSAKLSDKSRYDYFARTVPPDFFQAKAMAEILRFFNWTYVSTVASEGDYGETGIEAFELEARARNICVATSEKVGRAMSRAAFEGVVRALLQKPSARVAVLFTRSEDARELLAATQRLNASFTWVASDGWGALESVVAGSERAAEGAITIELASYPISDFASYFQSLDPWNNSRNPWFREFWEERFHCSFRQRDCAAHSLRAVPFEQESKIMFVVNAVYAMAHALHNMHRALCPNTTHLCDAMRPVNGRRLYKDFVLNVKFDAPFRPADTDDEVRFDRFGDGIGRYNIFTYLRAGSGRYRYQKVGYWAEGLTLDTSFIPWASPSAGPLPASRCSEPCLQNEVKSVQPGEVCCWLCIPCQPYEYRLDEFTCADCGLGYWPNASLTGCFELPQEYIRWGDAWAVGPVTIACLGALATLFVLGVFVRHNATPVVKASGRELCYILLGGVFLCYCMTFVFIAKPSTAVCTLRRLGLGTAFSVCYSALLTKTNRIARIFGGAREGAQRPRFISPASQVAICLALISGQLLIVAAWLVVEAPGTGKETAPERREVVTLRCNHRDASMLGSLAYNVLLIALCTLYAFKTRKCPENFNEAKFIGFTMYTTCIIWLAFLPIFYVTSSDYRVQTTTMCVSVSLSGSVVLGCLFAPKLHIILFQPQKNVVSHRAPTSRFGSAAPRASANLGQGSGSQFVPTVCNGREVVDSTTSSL
Procedure: Imaging experiments were performed on a Focus™ 220 microPET scanner (Concorde Microsystems, Knoxyille, Tenn., USA) using healthy male Wistar rats. During all scan sessions, animals were kept under gas anesthesia (2.5% isoflurane in O2 at 1 L/min flow rate).
Dynamic scans of 90 min were acquired. After reconstruction of the images (filtered back projection), they were spatially normalized to an in-house created [^11C]raclopride template of the rat brain in Paxinos coordinates. Automated and symmetric volumes of interest (VOIs) were generated for different brain regions (striatum, cortex, cerebellum, hippocampus, hypothalamus, thalamus, substantia nigra, nucleus accumbens and lateral globus pallidus) from which time-activity curves (TAC) were constructed for each individual scan, using PMOD software (v 3.1, PMOD Technologies Ltd.). The radioactivity concentration in the different brain regions was expressed as SUV as a function of time p.i. of the radiotracer by normalization for body weight of the animal and injected dose.
Rats were injected with 30-60 MBq of high specific activity formulation of [^11C]B-4, [^11C]B-2, [^11C]B-7, or [^11C]B-10 via the tail vein under isoflurane anesthesia (2.5% in O2 at 1 L/min flow rate).
For pretreatment and displacement experiments, compound A, compound B or ritanserin were dissolved and administered in a vehicle containing 20% (2-hydroxypropyl)-β-cyclodextrine and two equivalents hydrochloric acid. The ritanserin solution was protected from light.
A self-blocking study was done by subcutaneous (s.c.) administration of the authentic reference material (for [^11C]B-4) at ˜30 min prior to the radiotracer injection. Displacement studies were performed by i.v. injection of compound B at dose 4, 1, 0.3 and 0.1 mg/kg, compound A at dose 1 mg/kg or ritanserin at dose 0.3 mg/kg. All chase compounds were injected ˜30 min after radiotracer injection. A wash-out period of at least four days was maintained between the different pretreatment and displacement studies.
[^11C]B-4 was evaluated in vivo in three rats which were scanned dynamically for 90 min using μPET. The first rat was used for a baseline scan. The second rat was pretreated with authentic reference material B-4 via s.c. administration (dose 10 mg/kg) at 30 min prior to tracer injection. The third rat was used in a chase experiment and was injected i.v. with authentic reference material B-4 (dose 3 mg/kg) 30 min after tracer injection.
Two rats were injected with high specific activity tracer ([^11C]B-4, [^11C]B-2, [^11C]B-7, or [^11C]B-10) and scanned dynamically for 90 min. The first rat was scanned baseline, the second rat was injected i.v. with compound B (dose 4 mg/kg) 30 min after tracer injection. Table 16 gives an overview of the maximum and minimum SUV values in the chase experiment for the four studied tracers.
A chase experiment was performed for [^11C]B-2 with different doses of compound B (4, 1, 0.3, 0.1 mg/kg). The chase compound was injected i.v. 30 min after tracer injection. Table 17 gives an overview of the average SUV values before and after injection of the chase for the total brain.

intact tracer in perfused cerebellum [1] [%]	intact tracer in perfused cerebrum [1] [%]	polar metabolite in perfused cerebellum [1] [%]	polar metabolite in perfused cerebrum [1] [%]	recovered radioactivity present as intact tracer, on average, in both cerebrum and cerebellum [1]	% reduction of SUV (total brain) due to chase (mGluR2) [%]	SUV (total brain) before chase (mGluR2)	SUV (total brain) after chase (mGluR2)	SMILES	character of tracer binding to mGluR2 in vivo (mGluR2)	other results
96.4	93.1	3.6	6.9	about 90%	58	1.2	0.5	[11CH3]Oc1ccc(F)c(F)c1C1CCN(c2ccn3c(CC4CC4)nnc3c2Cl)CC1 [[^11C]B-10, 8-chloro-3-(cyclopropylmethyl)-7-[4-[2,3-difluoro-6-[^11C]methoxyphenyl]-1-piperidinyl]-1,2,4-triazolo[4,3-a]pyridine]	–	–
95.5	92.9	4.5	7.1	about 90%	58	1.2	0.5	[11CH3]Oc1cc(F)cc(F)c1C1CCN(c2ccn3c(CC4CC4)nnc3c2Cl)CC1 [[^11C]B-7, 8-chloro-3-(cyclopropylmethyl)-7-[4-[2,4-difluoro-6-[^11C]methoxyphenyl]-1-piperidinyl]-1,2,4-triazolo[4,3-a]pyridine]	–	–
95.5 ± 1.3	90.3 ± 0.3	4.1 ± 1.5	9.7 ± 0.3	about 90%	73	1.4	0.38	[11CH3]Oc1c(F)ccc(F)c1C1CCN(c2ccn3c(CC4CC4)nnc3c2Cl)CC1 [[^11C]B-2, 8-chloro-3-(cyclopropylmethyl)-7-[4-(3,6-difluoro-2-[^11C]methoxyphenyl)-1-piperidinyl]-1,2,4-triazolo[4,3-a]pyridine]	binds reversible, specific and selective to mGluR2	average SUV (total brain), baseline (mGluR2; baseline scan, 930-1650 sec p.i.): 1.26; % reduction of SUV (total brain) (mGluR2; compound B 0.1 mg/kg): 50%; average SUV (total brain) before chase (mGluR2; compound B 0.1 mg/kg, 930-1650 sec p.i.): 1.35; average SUV (total brain) after chase (mGluR2; compound B 0.1 mg/kg): 0.67; % reduction of SUV (total brain) (mGluR2; compound B 0.3 mg/kg): 64%; average SUV (total brain) before chase (mGluR2; compound B 0.3 mg/kg, 930-1650 sec p.i.): 2.15; average SUV (total brain) after chase (mGluR2; compound B 0.3 mg/kg): 0.78; % reduction of SUV (total brain) (mGluR2; compound B 1 mg/kg): 66%; average SUV (total brain) before chase (mGluR2; compound B 1 mg/kg, 930-1650 sec p.i.): 1.78; average SUV (total brain) after chase (mGluR2; compound B 1 mg/kg): 0.61; % reduction of SUV (total brain) (mGluR2; compound B 4 mg/kg): 74%; average SUV (total brain) before chase (mGluR2; compound B 4 mg/kg, 930-1650 sec p.i.): 1.36; average SUV (total brain) after chase (mGluR2; compound B 4 mg/kg): 0.36

SMILES	intact tracer in perfused cerebellum [1] [%]	intact tracer in perfused cerebrum [1] [%]	polar metabolite in perfused cerebellum [1] [%]	polar metabolite in perfused cerebrum [1] [%]	recovered radioactivity present as intact tracer, on average, in both cerebrum and cerebellum [1]	% reduction of SUV (total brain) due to chase (mGluR2) [%]	SUV (total brain) before chase (mGluR2)	SUV (total brain) after chase (mGluR2)	character of tracer binding to mGluR2 in vivo (mGluR2)	other results
[11CH3]Oc1ccc(F)cc1C1CCN(c2ccn3c(CC4CC4)nnc3c2Cl)CC1 [[^11C]B-4, 8-chloro-3-(cyclopropylmethyl)-7-[4-[5-fluoro-2-[^11C]methoxyphenyl]-1-piperidinyl]-1,2,4-triazolo[4,3-a]pyridine]	92.7	92.4	7.3	7.6	about 90%	70	1.05	0.32	binds reversible and specific to mGluR2	effect of self-chase on brain radioactivity (mGluR2; B-4 3 mg/kg i.v. 30 min after tracer): significant displacement; effect of self-blocking on brain uptake (mGluR2; B-4 10 mg/kg s.c. 30 min prior to tracer): lower brain uptake and faster wash-out; time at which maximum radioactivity concentration in brain is reached (mGluR2; baseline scan): about 9 min p.i.; time until which maximum radioactivity concentration stays constant (mGluR2; baseline scan, followed by wash-out): about 27 min p.i.
